The subject of the data set is c-Fos regulatory region. Description: Activity-dependent expression of a reporter driven by c-Fos regulatory regions. The settings on record: comparison of three regulatory regions. The source says:
The activity-dependent expression of a reporter construct driven by a regulatory region containing 761 bp of 5′ mouse c-Fos non-coding sequence, mouse c-Fos exon 1 and mouse c-Fos intron 1, as depicted in FIG. 9 (SEQ ID NO:7) was compared to: (1) the activity-dependent expression of the same reporter driven by the c-Fos 5′-non-coding sequence depicted in FIG. 10 (SEQ ID NO:1) and (2) the activity-dependent expression of the same reporter driven by the entire c-Fos gene followed by an IRES as depicted in FIG. 11 (SEQ ID NO:29).

“SEQ ID NO:7: reporter driven by regulatory region containing 761 bp of 5′ mouse c-Fos non-coding sequence, mouse c-Fos exon 1 and intron 1”: the “activity-dependent expression of the reporter” value is “best for high, non-leaky expression”.

The values are drawn from patent publication US20200318079A1, “ACTIVITY-DEPENDENT EXPRESSION CONSTRUCTS AND METHODS OF USING THE SAME” (The Board of Trustees of the Leland Stanford Junior …, priority 2016, published 2020).
